The nature of one data set: in vivo. The following applies: Sprague-Dawley, rat, po, 3.6 mg, Serum Concentrations of Individual Rats, oral capsule, dose equal to 3.6 mg naltrexone.
The conditions of data set [1]: rat, oral capsule; 2 hours was the first measurement.
The nature of data set [2]: Serum naltrexone levels of rats orally dosed with BB301 polyserine-naltrexone conjugate vs. naltrexone (ELISA). The following applies: rat; for Serum Concentrations of Individual Rats: equal dose (3.6 mg naltrexone). (In general: In an ELISA, binding on a coated surface is turned into a signal by an enzyme label.)
The mark [3] stands for this setting: Sprague-Dawley, in vivo, po, 1.8 mg, Mean Serum Concentrations +/− SD, oral capsule, ½ dose (1.8 mg) at 0 hours and at […].
Setting [4] is: Sprague-Dawley, in vivo, po, 3.6 mg.
Setting [5] is: Sprague-Dawley, in vivo, po, 3.6 mg, Mean Serum Concentrations +/− SD, oral capsule, equal dose at time zero.

“And” between values parts separate entries of the source, which are not always exact repeats. Identical values can stand only once.

As a reminder, the AUC(0-t) is the area under the concentration-time curve up to a stated or last time point. The low end stands for less exposure, the high end for more exposure. Usually Cmax stands for the peak of the concentration-time curve. As usually defined, the Tmax is the time at which the peak concentration occurs. `O=C1CC[C@@]2(O)[C@H]3Cc4ccc(O)c5c4[C@@]2(CCN3CC2CC2)[C@H]1O5` [Naltrexone] returned a concentration at 12 h in the data set “in vivo” of 1 ng/mL. The “time at which serum levels spiked” value in data set [1] is 2 h. Further, in data set [2] (setting [3]), the concentration at 0.5 h came to 72 ng/mL, the concentration at 3 h stood at 13 ng/mL, the concentration at 5 h turned out to be 4 ng/mL and the concentration at 8 h is 68 ng/mL. The compound also yielded a concentration at 11.5 h in data set [2] (Sprague-Dawley, in vivo, po, 1.8 mg, Mean Serum Concentrations +/− SD, oral capsule, ½ dose (1.8 mg) at 0 hours and at […], 11.5 hours) of 11 ng/mL. This compound showed a concentration at 24 h in data set [2] (Sprague-Dawley, in vivo, po, 1.8 mg, Mean Serum Concentrations +/− SD, oral capsule, ½ dose (1.8 mg) at 0 hours and at […], 24 hours) of 6 ng/mL. For the same compound, in data set [2] (setting [4]), the AUC(0-t) was 477 ng·h/mL, the peak level (Cmax) was 124 ng/mL and the Tmax is 45 min. In data set [2] (setting [5]), this compound registered a concentration at 0.5 h of 115 ng/mL, a concentration at 3 h of 55 ng/mL, a concentration at 5 h of 56 ng/mL and a concentration at 8 h of 7 ng/mL. The concentration at 12 h in data set [2] (Sprague-Dawley, in vivo, po, 3.6 mg, Mean Serum Concentrations +/− SD, oral capsule, equal dose at time zero, 12 hours) was found to be 2 ng/mL. For the same compound, in data set [2] (Sprague-Dawley, in vivo, po, 3.6 mg, Mean Serum Concentrations +/− SD, oral capsule, equal dose at time zero, 15 hours), the concentration at 15 h is 2 ng/mL. The same compound came in with a concentration at 24 h in data set [2] (Sprague-Dawley, in vivo, po, 3.6 mg, Mean Serum Concentrations +/− SD, oral capsule, equal dose at time zero, 24 hours) of 2 ng/mL. For the same compound, the “time at which naltrexone serum levels spiked” value in data set [2] (oral capsule, equal dose) was 0.5 h. Further, in data set [2] (oral capsule, 12 hours), the “Serum Concentrations of Individual Rats” value came to 2 ng/mL. Moreover, the “Serum Concentrations of Individual Rats” value in data set [2] (oral capsule, 15 hours) was 1 ng/mL and 2 ng/mL. Also, the “Serum Concentrations of Individual Rats” value in data set [2] (oral capsule, 24 hours) was 1 ng/ml (2×) and 3 ng/ml and 2 ng/ml.
